Patent US8906846B2, “Method of treating inflammatory bowel disease by administering a clip-inducing agent” (The Texas A&M University System, priority 2011, dated 2014)

What was measured:
C57BL/6 splenocytes = assay: Effects of CpG, MKR.4 and anti-MHC class II antibody on C57BL/6 splenocyte viability counts (Example 2); format: cell-based, mouse; conditions: CpG 5 ug/mL at start, MKR.4 5 ug/mL 24 h later for 2 h, Anti MHC Class II 5 ug/mL, viability counts 24 h after antibody
Description: C57BL/6 were Prepared as Follows: • A spleen from a C57BL/6 mouse was placed in a cell strainer in a petri dish with 6 mL of PBS • The spleen was mashed to produce a cell suspension • The PBS splenocyte cell suspension was transferred into a labeled 15 mL conical tube and centrifuged for 5 minutes at 1000 rpm • The pellet was resuspended in 1 mL of PBS • Geys was prepared to lyse the red blood cells • 7 mL of DI H20 • 0.5 mL of Geys B • 0.5 mL of Geys C • weighed out […] of NH4Cl • Mixed the […] of NH4Cl with 2 mL of Geys A • Transferred the dissolved solution to a 15 mL conical tube with the H20, Geys B, and Geys C • 3 mL of the Geys solution was added to the 1 mL of PBS cell suspension, mixed well and placed on ice for 1 minute (frequently inverted solution in tube on ice during the 1 minute) • The mixture was centrifuged for 5 minutes at 1000 rpm, washed with 5 mL of PBS, centrifuged for 5 minutes at 1000 rpm and resuspended in 10 mL of PBS • A hemacytometer count was performed: 99.0*10^6 cells total (9.9*10^6 cells/mL) plate 4*10^6 cells per well*8 wells=32 million; 32*10^6/9.9*10^6=3.23 mL of this suspension needed to obtain 32*10^6 cells • Centrifuged 3.23 mL of the suspension for 5 minutes at 1000 rpm and resuspended the pellet in 8 mL of 5% FBS RPMI • 1 mL of suspension was added to each well (12-well plate) • Added another 2 mL of 5% FBS RPMI to each well to bring the final volume up to 3 mL
(§1) 8 wells were set up for the experiment for each cell type (CRL-5822 and C57BL/6) with no treatment, with CpG, MKR.4 peptide, with MKR.4 peptide+CpG and with or without addition of purified Anti Class-II (HLA-DR,DP,DQ) treatment in the amounts listed below.
C57BL/6 • CpG: • (x) (1 mg/mL stock)=(5 ug/mL) (3 mL) • x=15 ul • MKR.4: • (x) (5 mg/mL stock)=(5 ug/mL) (3 mL) • x=3 ul • Anti MHC Class II • Treat at 5 ug/mL • Stock is at 1 mg/mL • (x) (1 mg/mL)=(5 ug/mL) (3 mL) • x=15 ul/well
(§2) CpG was administered to activate the cells and induce CLIP expression. MKR.4 was added to select wells 24 hours after cell activation. The cells were incubated with MKR.4 for 2 hours. Then fresh media with or without Anti MHC Class II was added. 24 hours after Anti MHC Class II was added to the wells viability counts were performed.

CRL-5822 cells [1] = assay: Effects of LPS, MKR.4 and anti-MHC class II antibody on CRL-5822 cell viability counts (Example 1); format: cell-based, human; conditions: LPS 1 ug/mL at start, MKR.4 2.5 ug/mL 24 h later for 2 h, Anti MHC Class II 5 ug/mL, viability counts 24 h after antibody
Description: Methods • The media was removed from a flask of CRL-5822 using a sterile glass pipet and vacuum and 1.5 mL of accutase was added to the flask and placed in incubator for 20 minutes • The cells were washed with 3 mL of PBS and transferred to a sterile 15 mL conical tube and centrifuged for 5 minutes @1000 rpm • The supernatant was removed with sterile glass pipet and vacuum and the pellet resuspended in 5 mL of PBS • A cell count was performed using the TC-10 automated counter • Loaded 10 ul of cell suspension+10 ul of trypan blue into disposable counting slide • Loaded slide into the TC-10 • Count • Live: 3.54*10^4 cells/mL*5 mL=177,000 cells total • 177,000/9 wells (8 wells in experiment+1 to maintain culture)=19,666 cells/well (flask). • The 5 mL of cell suspension was centrifuged for 5′ at 1000 rpm, the pellet was resuspended in 9 mL of 10% FBS RPMI • 1 mL of the cell suspension was added to a T-25 flask that had 4 mL of media in it and placed in the incubator. • After culture 1 mL of the cell suspension was added to each well (8 wells in a labeled 24 well plate) • A fresh vial of MKR.4 was resuspended in sterile DMSO • 7 mg of peptide was used to make a 5 mg/mL stock • 7 mg/mL=5 mg/mL=1.4 mL of DMSO • The peptide was added into 1.4 mL of DMSO, under the hood to maintain sterility • Once all of the peptide was dissolved, 200 ul aliquots were made […]

CRL-5822 cells [2] = assay: Effects of CpG, MKR.4 and anti-MHC class II antibody on CRL-5822 cell viability counts (Example 2); format: cell-based, human; conditions: CpG 1 ug/mL at start, MKR.4 2.5 ug/mL 24 h later for 2 h, Anti MHC Class II 5 ug/mL, viability counts 24 h after antibody
Description: CRL-5822 were Prepared as Follows: • Removed the media from a flask of CRL-5822 using a sterile glass pipet and vacuum • Added 1.5 mL of accutase to the flask and placed in incubator for 20 minutes • Washed with 3 mL of PBS • Transferred all to a sterile 15 mL conical tube • Centrifuged for 5′@1000 rpm • Removed supernatant with sterile glass pipet and vacuum • Resuspended in 3 mL of PBS • Performed a hemacytometer count indicating: 1.14*10^6 cells total of CRL-5822 cells • 1.14*10^6/8 wells+2 wells for culture maintenance=10 wells • 1.14*10^6/10 wells=[…] cells per well • Centrifuged the 3 mL of cell suspension for 5′ at 1000 rpm • Resuspended pellet in 10 mL of 10% FBS RPMI • 1 mL of this was added to 2 wells in a 12-well plate added 1 mL of fresh 10% FBS RPMI to each well to bring the total volume up to 2 mL.
as §1
CRL-5822 • CpG: • (x) (1 mg/mL stock)=(1 ug/mL) (2 mL) • x=2 ul • MKR.4: • (x) (5 mg/mL stock)=(2.5 ug/mL) (2 mL) • x=1 ul • Anti MHC Class II • Treat at 5 ug/mL • Stock is at 1 mg/mL • (x) (1 mg/mL)=(5 ug/mL) (2 mL) • x=10 ul/well
as §2

Substance | Total Dead (C57BL/6 splenocytes) | Total Live (C57BL/6 splenocytes) | Total Dead (CRL-5822 cells [1]) | Total Live (CRL-5822 cells [1]) | Total Dead (CRL-5822 cells [2]) | Total Live (CRL-5822 cells [2])
ANS GFR IMA VLA SGG QY (ANSGFRIMAVLASGGQY) [MKR.4] | 0.10*10^6 | 0.44*10^6 | 0.07*10^6 | 0.32*10^6 | 0.08*10^6 | 0.24*10^6
5′-tcgtcgttttgtcgttttgtcgtt-3′ [CpG, reference compound] | 0.08*10^6 | 1.25*10^6 | – | – | 0.07*10^6 | 0.35*10^6
